Numbered stars: 1 amine (or outer) side, 2 acyl side, 3 side chain; on linkers, the order of the positions; unused ones are H or OH. Square brackets hold non-standard residues; d marks the D form. Side chains are listed from the residue outwards. Peptide text beside a SMILES is read from it. * marks the point of attachment. Decanoyl(10-(4-HOOC-PhO)) = O=C(O)c1ccc(OCCCCCCCCCC(=O)*)cc1; γGlu = O=C(O)[C@H](CCC(=O)[*:2])N[*:1]; C14 diacid = O=C(O)CCCCCCCCCCCCC(=O)*; AEEA = NCCOCCOCC(=O)O; Aib = CC(C)(N)C(=O)O
Key:
[1] = Pharmacokinetics in rat: half-life after i.v. administration; type: in vivo; conditions: plasma, iv, 6 nmol/kg, male Sprague Dawley rats, approximately 4 rats per group, read-out: t½/h (half-life in rat) (converted)
Protocol: In vivo pharmacokinetic studies in rats were performed with the GLP-1 derivatives of Examples 2, 10, 17-18, and 31, as described in the following. Semaglutide was included for comparison.
Male Sprague Dawley rats of same age with a body weight of approximately 400 g were obtained from Taconic (Denmark) and assigned to the treatments by simple randomisation on body weight, approximately 4 rats per group, so that all animals in each group were of similar body weight.
The GLP-1 derivatives (approximately 6 nmol/ml) were dissolved in 50 mM sodium phosphate, 145 mM sodium chloride, 0.05% tween 80, pH 7.4. Intravenous injections (1.0 ml/kg) of the compounds were given through a catheter implanted in the right jugular vein. Blood was sampled from vena sublingualis for 5 days post dosing. Blood samples (200 μl) were collected in EDTA buffer (8 mM) and then centrifuged at 4° C. and 10000 G for 5 minutes. Plasma samples were kept at −20° C. until analyzed for plasma concentration of the respective GLP-1 compound.
The plasma concentrations of the GLP-1 compounds were determined using a Luminescence Oxygen Channeling Immunoasssay (LOCI), generally as described for the determination of insulin by Poulsen and Jensen in Journal of Biomolecular Screening 2007, vol. 12, p. 240-247. The donor beads were coated with streptavidin, while acceptor beads were conjugated with a monoclonal antibody recognising a mid-/C-terminal epitope of the peptide. Another monoclonal antibody, specific for the N-terminus, was biotinylated. The three reactants were combined with the analyte and formed a two-sited immuno-complex. Illumination of the complex released singlet oxygen atoms from the donor beads, which were channeled into the acceptor beads and triggered chemiluminescence which was measured in an Envision plate reader. The amount of light was proportional to the concentration of the compound.
Plasma concentration-time profiles were analyzed using Phoenix WinNonLin ver. 6.2, Pharsight Inc., Mountain View, Calif., USA), and the half-life (T1/2) calculated using individual plasma concentration-time profiles from each animal.

human GLP-1 receptor [2] = target: T1, human GLP-1 receptor (Homo sapiens, UniProt P43220); experiment: GLP-1 receptor binding: displacement of 125I-GLP-1 (SPA) at low and high albumin; conditions: 2.0% HSA vs 0.001% HSA
T1 construct: expressed in transfected cells; membranes
T1 sequence (P43220 24-463): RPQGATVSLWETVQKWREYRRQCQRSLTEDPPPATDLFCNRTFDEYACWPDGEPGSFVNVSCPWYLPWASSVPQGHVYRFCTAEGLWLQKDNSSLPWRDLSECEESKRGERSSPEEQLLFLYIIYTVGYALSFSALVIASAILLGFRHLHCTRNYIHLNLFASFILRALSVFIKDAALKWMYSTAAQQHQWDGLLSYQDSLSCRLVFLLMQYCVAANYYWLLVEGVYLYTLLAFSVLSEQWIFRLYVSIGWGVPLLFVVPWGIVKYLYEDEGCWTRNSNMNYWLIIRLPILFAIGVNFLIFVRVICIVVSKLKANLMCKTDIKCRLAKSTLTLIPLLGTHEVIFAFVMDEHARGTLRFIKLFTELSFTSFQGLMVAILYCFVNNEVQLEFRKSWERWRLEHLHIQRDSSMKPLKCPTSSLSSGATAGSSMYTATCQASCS
How it was run: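 Membranes from hamster cells stably transfected with the receptor, with WGA SPA beads and 0.06 nM [^125I]-GLP-1(7-36)NH2, incubated 120 min at 30 °C with shaking.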

[3] = Estimate of oral bioavailability: gut injection in rat (caprate), exposure in plasma; type: in vivo; conditions: injection in jejunum, 1000 uM in 55 mg/ml sodium caprate, plasma concentration (pM) at 30 min divided by dosing solution concentration (μM), mean n=4
How it was run: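 Male Sprague Dawley rats (~240 g, n=4) received 100 μl of 1000 uM derivative in 55 mg/ml sodium caprate by catheter into proximal or mid jejunum. Tail-vein EDTA plasma was sampled up to 240 min. Peptide was quantified by two-antibody bead chemiluminescence immunoassay, giving mean concentration-time profiles (pmol/l).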

human GLP-1 receptor [4] = target: T1, human GLP-1 receptor; experiment: In vitro potency: stimulation of cAMP formation (AlphaScreen cAMP Assay) in membranes expressing the human GLP-1 receptor; type: biochemical; conditions: membranes from BHK467-12A (tk-ts13) expressing the human GLP-1 receptor
Protocol: Purified plasma membranes from a stable transfected cell line, BHK467-12A (tk-ts13), expressing the human GLP-1 receptor were stimulated with the GLP-1 analogue or derivative in question, and the potency of cAMP production was measured using the AlphaScreen™ cAMP Assay Kit from Perkin Elmer Life Sciences. The basic principle of the AlphaScreen Assay is a competition between endogenous cAMP and exogenously added biotin-cAMP. The capture of cAMP is achieved by using a specific antibody conjugated to acceptor beads.
A stable transfected cell line and a high expressing clone were selected for screening. The cells were grown at 5% CO2 in DMEM, 5% FCS, 1% Pen/Strep (Penicillin/Streptomycin) and 0.5 mg/ml of the selection marker G418.
Cells at approximately 80% confluence were washed 2× with PBS and harvested with Versene (aqueous solution of the tetrasodium salt of ethylenediaminetetraacetic acid), centrifuged 5 min at 1000 rpm and the supernatant removed. The additional steps were all performed on ice. The cell pellet was homogenised by the Ultrathurax for 20-30 s in 10 ml of Buffer 1 (20 mM Na-HEPES, 10 mM EDTA, pH=7.4), centrifuged 15 min at 20,000 rpm and the pellet resuspended in 10 ml of Buffer 2 (20 mM Na-HEPES, 0.1 mM EDTA, pH=7.4). The suspension was homogenised for 20-30 s and centrifuged 15 min at 20,000 rpm. Suspension in Buffer 2, homogenisation and centrifugation was repeated once and the membranes were resuspended in Buffer 2. The protein concentration was determined and the membranes stored at −80° C. until use.
The final volume per well was 50 μl.
AlphaScreen cAMP Assay Kit from Perkin Elmer Life Sciences (cat. No: 6760625M); containing Anti-cAMP Acceptor beads (10 U/μl), Streptavidin Donor beads (10 U/μl) and Biotinylated-cAMP (133 U/μl).
cAMP standard (dilution factor in assay=5): cAMP Solution: 5 μL of a 5 mM cAMP-stock+495 μL AlphaScreen Buffer.
Membranes were prepared from hGLP-1/BHK 467-12A cells with a concentration of 6 μg/well corresponding to 0.6 mg/ml (the amount of membranes used pr. well may vary)
“No membranes”: Acceptor Beads (15 μg/ml final) in AlphaScreen buffer
“6 μg/well membranes”: membranes+Acceptor Beads (15 μg/ml final) in AlphaScreen buffer
An aliquot (10 μl) of “No membranes” was added to the cAMP standard (per well in duplicate wells) and the positive and negative controls
An aliquot (10 μl) of “6 μg/well membranes” was added to GLP-1 and analogues (per well in duplicate or triplicate wells)
Pos. Control: 10 μl “no membranes”+10 μl AlphaScreen Buffer
Neg. Control: 10 μl “no membranes”+10 μl cAMP Stock Solution (50 μM)
1. Make the AlphaScreen Buffer.
2. Dissolve and dilute the GLP-1/Analogues/cAMP standard in AlphaScreen Buffer.
4. Add the cAMP/GLP-1/Analogues to the plate: 10 μl per well.
5. Prepare membrane/Acceptor Beads solution and add this to the plates: 10 μl per well.
6. Add the Donor Beads: 30 μl per well.

| SMILES | half-life [1] [h] | Ratio [(IC50/nM) high HSA]/[(IC50/nM) low HSA] (human GLP-1 receptor [2]) | Dose-corrected exposure at 30 min [3] | EC50 (human GLP-1 receptor [4]) [nM] |
| --- | --- | --- | --- | --- |
| CC[C@H](C)[C@H](NC(=O)[C@H](Cc1ccccc1)NC(=O)[C@H](CCCCNC(=O)COCCOCCNC(=O)COCCOCCNC(=O)CC[C@H](NC(=O)CCCCCCCCCCCCC(=O)O)C(=O)O)NC(=O)[C@H](CCCNC(=N)N)NC(=O)[C@H](C)NC(=O)[C@H](C)NC(=O)[C@H](CCC(N)=O)NC(=O)[C@H](CCC(=O)O)NC(=O)[C@H](CCC(=O)O)NC(=O)[C@H](CC(C)C)NC(=O)[C@H](Cc1ccc(O)cc1)NC(=O)[C@H](CO)NC(=O)[C@H](CO)NC(=O)[C@@H](NC(=O)[C@H](CC(=O)O)NC(=O)[C@H](CO)NC(=O)[C@@H](NC(=O)[C@H](CCCCNC(=O)COCCOCCNC(=O)COCCOCCNC(=O)CC[C@H](NC(=O)CCCCCCCCCCCCC(=O)O)C(=O)O)NC(=O)[C@@H](NC(=O)CNC(=O)[C@H](CCC(=O)O)NC(=O)C(C)(C)NC(=O)[C@@H](N)Cc1c[nH]cn1)[C@@H](C)O)[C@@H](C)O)C(C)C)C(=O)N[C@@H](C)C(=O)N[C@@H](Cc1c[nH]cn1)C(=O)N[C@@H](CC(C)C)C(=O)N[C@H](C(=O)N[C@@H](CCC(N)=O)C(=O)NCC(=O)N[C@@H](CCCNC(=N)N)C(=O)NCC(=O)O)C(C)C [Example 18, N^ε12-[2-[2-[2-[[2-[2-[2-[[(4S)-4-carboxy-4-(13-carboxytridecanoylamino)butanoyl]amino]ethoxy]ethoxy]acetyl]amino]ethoxy]ethoxy]acetyl], N^ε27-[2-[2-[2-[[2-[2-[2-[[(4S)-4-carboxy-4-(13-carboxytridecanoylamino)butanoyl]amino]ethoxy]ethoxy]acetyl]amino]ethoxy]ethoxy]acetyl]-[Aib^8,Lys^12,Glu^22,Arg^26,Lys^27,His^31,Gln^34]-GLP-1-(7-37)-peptide] (H-H[Aib]EGTK([AEEA-AEEA-γGlu-C14 diacid])TSDVSSYLEEQAARK([AEEA-AEEA-γGlu-C14 diacid])FIAHLVQGRG-OH) | 10 | 2.1 | – | – |
| CC[C@H](C)[C@H](NC(=O)[C@H](Cc1ccccc1)NC(=O)[C@H](CCCCNC(=O)COCCOCCNC(=O)COCCOCCNC(=O)CC[C@H](NC(=O)CCCCCCCCCCCCC(=O)O)C(=O)O)NC(=O)[C@H](CCCNC(=N)N)NC(=O)[C@H](C)NC(=O)[C@H](C)NC(=O)[C@H](CCC(N)=O)NC(=O)[C@H](CCCCNC(=O)COCCOCCNC(=O)COCCOCCNC(=O)CC[C@H](NC(=O)CCCCCCCCCCCCC(=O)O)C(=O)O)NC(=O)[C@H](CCC(=O)O)NC(=O)[C@H](CC(C)C)NC(=O)[C@H](Cc1ccc(O)cc1)NC(=O)[C@H](CO)NC(=O)[C@H](CO)NC(=O)[C@@H](NC(=O)[C@H](CC(=O)O)NC(=O)[C@H](CO)NC(=O)[C@@H](NC(=O)[C@H](Cc1ccccc1)NC(=O)[C@@H](NC(=O)CNC(=O)[C@H](CCC(=O)O)NC(=O)C(C)(C)NC(=O)[C@@H](N)Cc1c[nH]cn1)[C@@H](C)O)[C@@H](C)O)C(C)C)C(=O)N[C@@H](C)C(=O)N[C@@H](Cc1c[nH]cn1)C(=O)N[C@@H](CC(C)C)C(=O)N[C@H](C(=O)NCC(=O)O)C(C)C [Example 19, N^ε22-[2-[2-[2-[[2-[2-[2-[[(4S)-4-carboxy-4-(13-carboxytridecanoylamino)butanoyl]amino]ethoxy]ethoxy]acetyl]amino]ethoxy]ethoxy]acetyl], N^ε27-[2-[2-[2-[[2-[2-[2-[[(4S)-4-carboxy-4-(13-carboxytridecanoylamino)butanoyl]amino]ethoxy]ethoxy]acetyl]amino]ethoxy]ethoxy]acetyl]-[Aib^8,Lys^22,Arg^26,Lys^27,His^31,Gly^34]-GLP-1-(7-34)-peptide] (H-H[Aib]EGTFTSDVSSYLEK([AEEA-AEEA-γGlu-C14 diacid])QAARK([AEEA-AEEA-γGlu-C14 diacid])FIAHLVG-OH) | – | 60 | 61 | 0.052 |
| CC[C@H](C)[C@H](NC(=O)[C@H](Cc1ccccc1)NC(=O)[C@H](CCCCNC(=O)COCCOCCNC(=O)COCCOCCNC(=O)CC[C@H](NC(=O)CCCCCCCCCOc1ccc(C(=O)O)cc1)C(=O)O)NC(=O)[C@H](Cc1c[nH]cn1)NC(=O)[C@H](C)NC(=O)[C@H](C)NC(=O)[C@H](CCC(N)=O)NC(=O)[C@H](CCC(=O)O)NC(=O)[C@H](CCC(=O)O)NC(=O)[C@H](CC(C)C)NC(=O)[C@H](Cc1ccc(O)cc1)NC(=O)[C@H](CO)NC(=O)[C@H](CO)NC(=O)[C@@H](NC(=O)[C@H](CC(=O)O)NC(=O)[C@H](CO)NC(=O)[C@@H](NC(=O)[C@H](Cc1ccccc1)NC(=O)[C@@H](NC(=O)CNC(=O)[C@H](CCC(=O)O)NC(=O)[C@H](C)NC(=O)[C@@H](N)Cc1c[nH]cn1)[C@@H](C)O)[C@@H](C)O)C(C)C)C(=O)N[C@@H](CCC(=O)O)C(=O)N[C@@H](Cc1c[nH]c2ccccc12)C(=O)N[C@@H](CC(C)C)C(=O)N[C@H](C(=O)N[C@@H](CCCNC(=N)N)C(=O)NCC(=O)N[C@@H](CCCCNC(=O)COCCOCCNC(=O)COCCOCCNC(=O)CC[C@H](NC(=O)CCCCCCCCCOc1ccc(C(=O)O)cc1)C(=O)O)C(=O)NCC(=O)N[C@@H](CCC(=O)O)C(=O)O)C(C)C [Example 21, N^ε27-[2-[2-[2-[[2-[2-[2-[[(4S)-4-carboxy-4-[10-(4-carboxyphenoxy)decanoylamino]butanoyl]amino]ethoxy]ethoxy]acetyl]amino]ethoxy]ethoxy]acetyl], N^ε36-[2-[2-[2-[[2-[2-[2-[[(4S)-4-carboxy-4-[10-(4-carboxyphenoxy)decanoylamino]butanoyl]amino]ethoxy]ethoxy]acetyl]amino]ethoxy]ethoxy]acetyl]-[Glu^22,His^26,Lys^27,Glu^30,Arg^34,Lys^36]-GLP-1-(7-37)-peptidyl-Glu] (H-HAEGTFTSDVSSYLEEQAAHK([AEEA-AEEA-γGlu-Decanoyl(10-(4-HOOC-PhO))])FIEWLVRGK([AEEA-AEEA-γGlu-Decanoyl(10-(4-HOOC-PhO))])GE-OH; N-terminus and C-terminus assumed) | – | – | 140 | 0.052 |

From US11117947B2, “Double-acylated GLP-1 derivatives” (Novo Nordisk A/S, priority 2011, dated 2021)
